Measurements from ChEMBL document CHEMBL1152081, “1,25-Dihydroxyvitamin D3 Hybrid Analogs with Structural changes at both the A-ring and the C,D-ring side-chain. II” (1995).

Key:
Assay type in all cases: functional
[1] = species on record: Rattus norvegicus; experiment: Stimulation of calcium currents by the compound in rat osteosarcoma cells at a concentration of 0.5 nM
[2] = species on record: Rattus norvegicus; experiment: Stimulation of calcium currents by the compound in rat osteosarcoma cells at a concentration of 5.0 nM
[3] = species on record: Rattus norvegicus; experiment: Stimulation of calcium currents by the compound in rat osteosarcoma cells at a concentration of 0.05 nM
[4] = species on record: Rattus norvegicus; experiment: Stimulation of calcium currents by the compound in rat osteosarcoma cells at a concentration of 0.01 nM

SMILES	Ca2+ current [1] [mV]	Ca2+ current [2] [mV]	Ca2+ current [3] [mV]	Ca2+ current [4] [mV]
C=C1/C(=C\C=C2/CCC[C@]3(C)C([C@@H](C)CSc4cccc(C(C)(C)O)c4)CC[C@@H]23)C[C@H](O)C[C@H]1CO (stereo not given in full)	6.24	8.58		
C=C1/C(=C\C=C2/CCC[C@]3(C)C([C@@H](C)COCCCC(C)(C)O)CC[C@@H]23)C[C@@H](O)C[C@@H]1CO (stereo not given in full)	8.8	8.99	7.33	5.42
C=C1/C(=C\C=C2/CCC[C@]3(C)C([C@@H](C)COCCCC(C)(C)O)CC[C@@H]23)C[C@H](O)C[C@H]1CO (stereo not given in full)	10	8.93	7.3	4.94
C=C1/C(=C\C=C2/CCC[C@]3(C)C([C@@H](C)CSc4cccc(C(C)(C)O)c4)CC[C@@H]23)C[C@@H](O)C[C@@H]1CO (stereo not given in full)	6.6	11.18		
C=C1/C(=C\C=C2/CCC[C@]3(C)[C@@H]([C@H](C)CCCC(C)(C)O)CC[C@@H]23)C[C@@H](O)C[C@@H]1O [CALCITRIOL]	5.73	9.79	1.78	
